Source: ChEMBL document CHEMBL1909046, “DrugMatrix in vitro pharmacology data”

Columns and labels:
[1] = DRUGMATRIX: Glutamate, NMDA, Agonism radioligand binding (ligand: [3H] CGP-39653); format: cell membranes, Rattus norvegicus, Wistar, Cerebral cortex, Membrane; conditions: Not Active = under 50% inhibition at 10 µM
[2] = molecular target: Platelet-activating factor receptor (Homo sapiens, UniProt P25105); format: tissue-based; note: in other assays of this panel Not Active means under 50% inhibition at 10 µM
Chain of Platelet-activating factor receptor (P25105 whole entry): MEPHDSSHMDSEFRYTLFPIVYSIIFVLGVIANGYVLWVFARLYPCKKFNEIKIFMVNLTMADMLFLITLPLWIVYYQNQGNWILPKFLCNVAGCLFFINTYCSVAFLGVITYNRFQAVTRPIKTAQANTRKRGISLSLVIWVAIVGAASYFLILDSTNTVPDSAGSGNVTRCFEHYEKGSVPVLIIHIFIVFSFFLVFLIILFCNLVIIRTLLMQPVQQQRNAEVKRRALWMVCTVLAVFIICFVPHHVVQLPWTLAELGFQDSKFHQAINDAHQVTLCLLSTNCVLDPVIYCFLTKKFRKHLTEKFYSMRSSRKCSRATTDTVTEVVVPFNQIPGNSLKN

Androgen receptor [3] = molecular target: T1, Androgen receptor (Rattus norvegicus, UniProt P15207); note: in other assays of this panel Not Active means under 50% inhibition at 10 µM
T1 sequence (P15207 whole entry): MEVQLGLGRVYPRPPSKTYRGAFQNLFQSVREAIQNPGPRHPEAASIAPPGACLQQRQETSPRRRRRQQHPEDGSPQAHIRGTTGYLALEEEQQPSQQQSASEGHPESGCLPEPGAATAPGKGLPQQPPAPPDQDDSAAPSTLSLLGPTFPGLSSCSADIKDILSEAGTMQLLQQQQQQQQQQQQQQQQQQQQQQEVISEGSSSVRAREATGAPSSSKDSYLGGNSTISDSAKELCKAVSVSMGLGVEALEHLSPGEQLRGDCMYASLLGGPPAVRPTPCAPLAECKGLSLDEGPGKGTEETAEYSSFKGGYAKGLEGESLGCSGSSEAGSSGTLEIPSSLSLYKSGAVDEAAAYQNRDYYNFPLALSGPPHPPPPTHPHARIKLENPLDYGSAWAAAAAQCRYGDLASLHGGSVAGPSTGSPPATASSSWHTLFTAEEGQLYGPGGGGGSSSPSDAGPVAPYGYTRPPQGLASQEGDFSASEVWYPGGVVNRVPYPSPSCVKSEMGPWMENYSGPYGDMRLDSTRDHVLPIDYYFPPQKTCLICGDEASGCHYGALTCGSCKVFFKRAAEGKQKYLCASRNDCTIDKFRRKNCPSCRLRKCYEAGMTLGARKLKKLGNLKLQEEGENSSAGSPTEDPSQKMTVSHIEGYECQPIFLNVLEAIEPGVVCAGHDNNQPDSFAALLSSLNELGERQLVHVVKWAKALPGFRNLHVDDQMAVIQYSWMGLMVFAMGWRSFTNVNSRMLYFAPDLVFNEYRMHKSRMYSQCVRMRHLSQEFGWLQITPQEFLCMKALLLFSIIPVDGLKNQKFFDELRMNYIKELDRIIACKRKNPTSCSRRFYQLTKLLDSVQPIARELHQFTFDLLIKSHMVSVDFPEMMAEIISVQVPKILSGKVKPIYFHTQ

Neutrophil elastase = molecular target: T2, Neutrophil elastase (Homo sapiens, UniProt P08246); format: tissue-based;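 note: inhibition of neutrophil elastase enzyme activity, measured with a p-nitroanilide-linked peptide substrate; in other assays of this panel Not Active means under 50% inhibition at 10 µM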
T2 sequence (P08246 whole entry): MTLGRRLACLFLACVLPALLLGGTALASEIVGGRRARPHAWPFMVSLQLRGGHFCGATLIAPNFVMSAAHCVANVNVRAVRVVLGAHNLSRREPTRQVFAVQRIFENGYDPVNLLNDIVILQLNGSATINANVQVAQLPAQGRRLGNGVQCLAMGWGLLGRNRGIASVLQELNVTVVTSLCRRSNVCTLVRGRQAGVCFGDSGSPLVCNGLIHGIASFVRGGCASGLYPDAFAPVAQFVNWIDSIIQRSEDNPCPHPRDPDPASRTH

Cytochrome P450 2C9 = Cytochrome P450 2C9 (Homo sapiens, UniProt P11712); note: in other assays of this panel Not Active means under 50% inhibition at 10 µM
Chain of Cytochrome P450 2C9 (P11712 whole entry): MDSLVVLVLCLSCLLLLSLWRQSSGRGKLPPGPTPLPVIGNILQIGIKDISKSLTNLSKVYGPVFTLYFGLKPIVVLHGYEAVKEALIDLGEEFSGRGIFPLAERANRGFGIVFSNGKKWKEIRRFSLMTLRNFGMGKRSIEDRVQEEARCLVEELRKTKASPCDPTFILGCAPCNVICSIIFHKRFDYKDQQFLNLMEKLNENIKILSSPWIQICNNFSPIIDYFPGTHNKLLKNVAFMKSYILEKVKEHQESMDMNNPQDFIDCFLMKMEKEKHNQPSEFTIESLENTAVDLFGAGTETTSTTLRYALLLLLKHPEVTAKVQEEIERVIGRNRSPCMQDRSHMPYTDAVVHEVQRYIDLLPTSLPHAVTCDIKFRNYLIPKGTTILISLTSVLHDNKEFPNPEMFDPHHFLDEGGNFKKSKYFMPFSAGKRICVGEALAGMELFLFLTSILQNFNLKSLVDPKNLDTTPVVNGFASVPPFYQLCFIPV

Cytochrome P450 2C19 = Cytochrome P450 2C19 (Homo sapiens, UniProt P33261); note: in other assays of this panel Not Active means under 50% inhibition at 10 µM
Chain of Cytochrome P450 2C19 (P33261 whole entry): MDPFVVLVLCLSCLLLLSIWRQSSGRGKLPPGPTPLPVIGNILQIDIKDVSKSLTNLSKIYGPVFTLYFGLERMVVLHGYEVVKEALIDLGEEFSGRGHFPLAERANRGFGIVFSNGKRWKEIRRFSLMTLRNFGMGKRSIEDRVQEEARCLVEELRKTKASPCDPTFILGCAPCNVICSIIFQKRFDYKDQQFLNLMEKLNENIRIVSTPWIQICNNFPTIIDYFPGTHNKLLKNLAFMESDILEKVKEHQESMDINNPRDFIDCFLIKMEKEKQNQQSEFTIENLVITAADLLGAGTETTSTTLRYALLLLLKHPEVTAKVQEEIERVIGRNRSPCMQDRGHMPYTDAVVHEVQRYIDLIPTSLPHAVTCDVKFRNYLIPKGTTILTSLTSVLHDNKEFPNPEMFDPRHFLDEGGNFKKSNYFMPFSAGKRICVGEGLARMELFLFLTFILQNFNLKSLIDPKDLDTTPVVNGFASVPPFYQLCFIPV

[4] = molecular target: C-C chemokine receptor type 2 (Homo sapiens, UniProt P41597); format: cell membranes, Membrane; conditions: cho-k1; note: in other assays of this panel Not Active means under 50% inhibition at 10 µM
Chain of C-C chemokine receptor type 2 (P41597 whole entry): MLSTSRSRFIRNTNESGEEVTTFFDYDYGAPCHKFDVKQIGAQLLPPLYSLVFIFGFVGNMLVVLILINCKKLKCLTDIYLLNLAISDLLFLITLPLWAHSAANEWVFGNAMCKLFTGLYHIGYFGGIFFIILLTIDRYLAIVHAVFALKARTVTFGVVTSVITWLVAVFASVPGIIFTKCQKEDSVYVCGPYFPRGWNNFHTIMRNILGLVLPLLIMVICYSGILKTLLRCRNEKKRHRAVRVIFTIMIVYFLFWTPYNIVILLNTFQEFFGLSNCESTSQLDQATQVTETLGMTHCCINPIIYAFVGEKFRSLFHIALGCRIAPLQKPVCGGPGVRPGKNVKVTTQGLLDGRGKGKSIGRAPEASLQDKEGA

Androgen receptor [5] = molecular target: T1, Androgen receptor; remark: listed apart in the source
Cytochrome P450 2D6 = Cytochrome P450 2D6 (Homo sapiens, UniProt P10635); note: in other assays of this panel Not Active means under 50% inhibition at 10 µM
Chain of Cytochrome P450 2D6 (P10635 whole entry): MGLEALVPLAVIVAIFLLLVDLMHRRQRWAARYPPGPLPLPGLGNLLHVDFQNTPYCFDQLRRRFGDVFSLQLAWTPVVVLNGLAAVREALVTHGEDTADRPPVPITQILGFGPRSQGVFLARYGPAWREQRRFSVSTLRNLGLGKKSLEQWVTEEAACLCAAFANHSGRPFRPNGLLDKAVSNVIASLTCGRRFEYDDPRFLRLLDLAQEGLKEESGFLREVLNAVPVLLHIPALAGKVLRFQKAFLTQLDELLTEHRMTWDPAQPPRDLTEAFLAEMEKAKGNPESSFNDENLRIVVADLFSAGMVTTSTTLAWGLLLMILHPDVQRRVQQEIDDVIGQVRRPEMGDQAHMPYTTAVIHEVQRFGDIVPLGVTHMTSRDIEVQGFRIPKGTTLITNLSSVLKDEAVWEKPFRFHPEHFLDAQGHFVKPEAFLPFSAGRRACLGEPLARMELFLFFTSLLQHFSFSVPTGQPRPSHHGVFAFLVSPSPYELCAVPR

Cytochrome P450 2E1 = Cytochrome P450 2E1 (Homo sapiens, UniProt P05181); note: in other assays of this panel Not Active means under 50% inhibition at 10 µM
Chain of Cytochrome P450 2E1 (P05181 whole entry): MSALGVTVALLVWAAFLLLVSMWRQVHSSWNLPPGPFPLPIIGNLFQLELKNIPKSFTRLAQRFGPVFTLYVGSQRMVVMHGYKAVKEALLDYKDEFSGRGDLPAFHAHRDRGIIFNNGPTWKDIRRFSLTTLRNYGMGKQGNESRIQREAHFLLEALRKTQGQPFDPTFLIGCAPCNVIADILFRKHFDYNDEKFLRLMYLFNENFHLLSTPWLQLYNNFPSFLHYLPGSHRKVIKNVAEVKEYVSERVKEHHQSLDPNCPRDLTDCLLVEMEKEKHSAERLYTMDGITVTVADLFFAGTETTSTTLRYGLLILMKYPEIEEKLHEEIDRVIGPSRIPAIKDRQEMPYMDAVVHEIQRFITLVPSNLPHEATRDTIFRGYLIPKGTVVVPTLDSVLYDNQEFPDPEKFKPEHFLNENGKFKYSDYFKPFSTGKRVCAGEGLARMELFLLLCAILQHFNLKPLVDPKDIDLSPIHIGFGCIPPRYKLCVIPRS

Cytochrome P450 3A4 = Cytochrome P450 3A4 (Homo sapiens, UniProt P08684); note: in other assays of this panel Not Active means under 50% inhibition at 10 µM
Chain of Cytochrome P450 3A4 (P08684 whole entry): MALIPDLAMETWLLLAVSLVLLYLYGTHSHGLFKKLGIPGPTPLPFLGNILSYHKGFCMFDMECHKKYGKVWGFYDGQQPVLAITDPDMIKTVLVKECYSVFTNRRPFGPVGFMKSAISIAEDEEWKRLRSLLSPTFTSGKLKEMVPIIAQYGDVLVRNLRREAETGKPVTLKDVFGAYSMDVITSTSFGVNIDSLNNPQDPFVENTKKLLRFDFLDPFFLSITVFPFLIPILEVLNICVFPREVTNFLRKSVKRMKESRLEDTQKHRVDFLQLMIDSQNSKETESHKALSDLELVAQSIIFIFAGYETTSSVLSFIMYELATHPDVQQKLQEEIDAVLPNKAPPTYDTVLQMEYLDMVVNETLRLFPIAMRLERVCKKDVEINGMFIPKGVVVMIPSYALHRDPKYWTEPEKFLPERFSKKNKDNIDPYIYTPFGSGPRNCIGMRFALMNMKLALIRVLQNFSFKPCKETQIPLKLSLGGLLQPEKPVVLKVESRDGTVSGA

SMILES | IC50 [1] | Ki [1] | IC50 [2] | IC50 (Androgen receptor [3]) | IC50 (Neutrophil elastase) | IC50 (Cytochrome P450 2C9) | IC50 (Cytochrome P450 2C19) | IC50 [4] | IC50 (Androgen receptor [5]) | Ki (Androgen receptor [5]) | IC50 (Cytochrome P450 2D6) | IC50 (Cytochrome P450 2E1) | IC50 (Cytochrome P450 3A4)
O=C(c1ccccc1F)N1CCC(Cc2ccccc2)CC1 | Not Active | Not Active | Not Active | Not Active | Not Active | 2000 nM | 500 nM | Not Active | – | – | – | – | –
Cc1c(O)cccc1C(=O)N[C@@H](CSc1ccccc1)[C@H](O)CN1C[C@H]2CCCC[C@H]2C[C@H]1C(=O)NC(C)(C)C | Not Active | Not Active | Not Active | – | Not Active | – | – | Not Active | 36400 nM | 24300 nM | – | – | –
CC(O)COC[C@H]1O[C@@H]2O[C@H]3[C@H](O)[C@@H](O)[C@@H](O[C@H]4[C@H](O)[C@@H](O)[C@@H](O[C@H]5[C@H](O)[C@@H](O)[C@@H](O[C@H]6[C@H](O)[C@@H](O)[C@@H](O[C@H]7[C@H](O)[C@@H](O)[C@@H](O[C@H]8[C@H](O)[C@@H](O)[C@@H](O[C@H]1[C@H](O)[C@H]2O)O[C@@H]8COCC(C)O)O[C@@H]7COCC(C)O)O[C@@H]6COCC(C)O)O[C@@H]5COCC(C)O)O[C@@H]4COCC(C)O)O[C@@H]3COCC(C)O (stereo partly drawn) [2-HYDROXYPROPYL-BETA-CYCLODEXTRIN] | Not Active | Not Active | Not Active | – | Not Active | – | – | Not Active | 2160 nM | 1440 nM | – | – | –
CC[C@H]1[C@@H]2C[C@H]3[C@@H]4N(C)c5ccccc5[C@]45C[C@@H]([C@@H]2[C@H]5O)N3[C@@H]1O [AJMALINE] | Not Active | Not Active | Not Active | – | Not Active | – | – | Not Active | – | – | 1000 nM | – | –
ClC(Cl)(Cl)Cl [CARBON TETRACHLORIDE] | Not Active | Not Active | Not Active | – | Not Active | – | – | Not Active | – | – | – | 11000 nM | –
CN1CCN(C(c2ccccc2)c2ccccc2)CC1 [CYCLIZINE] | Not Active | Not Active | Not Active | Not Active | Not Active | – | – | Not Active | – | – | 6220 nM | – | –
CC(C)C[C@H]1C(=O)N2CCC[C@H]2[C@]2(O)O[C@](NC(=O)[C@@H]3C=C4c5cccc6[nH]cc(c56)C[C@H]4N(C)C3)(C(C)C)C(=O)N12 [ERGOCRYPTINE] | Not Active | Not Active | Not Active | Not Active | Not Active | 6000 nM | – | Not Active | – | – | – | – | 600 nM
COc1ccc2c(c1OC)C(=O)O[C@@H]2[C@H]1c2c(cc3c(c2OC)OCO3)CCN1C [NOSCAPINE] | Not Active | Not Active | Not Active | – | Not Active | 8180 nM | 400 nM | Not Active | – | – | – | – | –
NNCCc1ccccc1 [PHENELZINE] | Not Active | Not Active | Not Active | – | Not Active | 4000 nM | 800 nM | Not Active | – | – | 1000 nM | – | –
